Tested on: 755483-174-R-J1-PDC complex spheroid growth, percent test/control
Assay: Anticancer human tumor 755483-174-R-J1-PDC patient-derived rhabdomyosarcoma cell line growth inhibition [Asc]
Conditions: for IC50: curve of first compound; for viability, T/C: stronger effect = lower value
Summary of the method: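 Complex spheroids combining tumor cells with HUVEC endothelial cells and human MSCs, at 37 degrees C, 5% CO2; agents tested alone or combined, half-log dilutions from at or near clinical Cmax, or 10 microM if Cmax unknown.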
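Note: spheroids exposed to compounds for seven days before readout.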

Q: For C#Cc1c(F)ccc2cc(O)cc(-c3ncc4c(N5CC6CCC(C5)N6)nc(OCC56CCCN5CC(F)C6)nc4c3F)c12 (stereo not given) + CCN1C(C(=O)NC23CCC(C(=O)O)(CC2)CC3)C(c2cccc(Cl)c2F)C2(C(=O)Nc3cc(Cl)ccc32)C12CCCCC2, which IC50 (second compound 0.03 µM) is on record?
A: 8.79 µM

Q: And the IC50 (second compound 0.0949 µM)?
A: 9.37 µM

Q: And the IC50 (second compound 0.3 µM)?
A: 6.91 µM

Q: What about the IC50 (second compound 0.949 µM) of the same molecule?
A: 8.9 µM

Q: And the IC50 (second compound 3 µM)?
A: 7.2 µM

Q: And the viability, T/C (second compound 0.03 µM, first compound 0.0316 µM)?
A: 90.5%

Q: And the viability, T/C (second compound 0.03 µM, first compound 0.1 µM)?
A: 96.1%

Q: What about the viability, T/C (second compound 0.03 µM, first compound 0.316 µM) of the same molecule?
A: 95.5%

Q: What about the viability, T/C (second compound 0.03 µM, first compound 1 µM) of the same molecule?
A: 120%

Q: And the viability, T/C (second compound 0.03 µM, first compound 3.16 µM)?
A: 71.8%

Q: And the viability, T/C (second compound 0.03 µM, first compound 10 µM)?
A: 47.2%

Q: What about the viability, T/C (second compound 0.0949 µM, first compound 0.0316 µM) of the same molecule?
A: 135%

Q: And the viability, T/C (second compound 0.0949 µM, first compound 0.1 µM)?
A: 110%

Q: What about the viability, T/C (second compound 0.0949 µM, first compound 0.316 µM) of the same molecule?
A: 128%

Q: What about the viability, T/C (second compound 0.0949 µM, first compound 1 µM) of the same molecule?
A: 121%

Q: What about the viability, T/C (second compound 0.0949 µM, first compound 3.16 µM) of the same molecule?
A: 59.8%

Q: And the viability, T/C (second compound 0.0949 µM, first compound 10 µM)?
A: 49.4%

Q: What about the viability, T/C (second compound 0.3 µM, first compound 0.0316 µM) of the same molecule?
A: 79.4%

Q: What about the viability, T/C (second compound 0.3 µM, first compound 0.1 µM) of the same molecule?
A: 88.4%

Q: And the viability, T/C (second compound 0.3 µM, first compound 0.316 µM)?
A: 143%

Q: And the viability, T/C (second compound 0.3 µM, first compound 1 µM)?
A: 89.1%

Q: What about the viability, T/C (second compound 0.3 µM, first compound 3.16 µM) of the same molecule?
A: 91.7%

Q: What about the viability, T/C (second compound 0.3 µM, first compound 10 µM) of the same molecule?
A: 30.5%

Q: And the viability, T/C (second compound 0.949 µM, first compound 0.0316 µM)?
A: 78.9%

Q: And the viability, T/C (second compound 0.949 µM, first compound 0.1 µM)?
A: 79.5%

Q: What about the viability, T/C (second compound 0.949 µM, first compound 0.316 µM) of the same molecule?
A: 117%

Q: And the viability, T/C (second compound 0.949 µM, first compound 1 µM)?
A: 118%

Q: And the viability, T/C (second compound 0.949 µM, first compound 3.16 µM)?
A: 88.2%

Q: And the viability, T/C (second compound 0.949 µM, first compound 10 µM)?
A: 45.7%

Q: What about the viability, T/C (second compound 3 µM, first compound 0.0316 µM) of the same molecule?
A: 111%

Q: What about the viability, T/C (second compound 3 µM, first compound 0.1 µM) of the same molecule?
A: 106%

Q: And the viability, T/C (second compound 3 µM, first compound 0.316 µM)?
A: 116%

Q: What about the viability, T/C (second compound 3 µM, first compound 1 µM) of the same molecule?
A: 114%

Q: What about the viability, T/C (second compound 3 µM, first compound 3.16 µM) of the same molecule?
A: 80.6%

Q: And the viability, T/C (second compound 3 µM, first compound 10 µM)?
A: 37.8%

— PubChem BioAssay AID1963434 (Molecular Pharmacology Branch, DTP, NCI, 2024)
